Experiment [1] is described as follows: Shn3 3'UTR reporter inhibitors, dose response, cell-based, Clone20 osteoblasts, firefly luciferase, cherry-picked (AID 624132).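 Also: firefly luciferase luminescence from reporter carrying the Shn3 3'UTR in osteoblasts.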 The format is functional.
Experiment [2] can be described thus: inhibitors of SNCA 5'UTR-driven reporter translation, confirmation, H4 neuroglioma cells, luminescence (AID 1988). The experiment is classed as functional, cell-based.
Experiment [3] can be described thus: Luminescence Cell-Based Dose Response HTS to Identify Inhibitors of 5'UTR Stem-Loop Driven Prion Protein mRNA Translation in H4 Neuroglioblastoma Cells. [Related pubchem assays: 1827 (Project Summary), 1813 (Primary HTS)]. The format is functional.
Experiment [4] in a line: inhibitors of firefly luciferase expression or activity, dose response, H4 neuroglioma cells, luminescence (AID 1990). The experiment is classed as functional, cell-based.
Experiment [5] addresses Cytochrome P450 2D6 (Homo sapiens, UniProt P10635).
Experiment [6] addresses T1, Cytochrome P450 1A2 (Homo sapiens, UniProt P05177).
T1 sequence (P05177 whole entry): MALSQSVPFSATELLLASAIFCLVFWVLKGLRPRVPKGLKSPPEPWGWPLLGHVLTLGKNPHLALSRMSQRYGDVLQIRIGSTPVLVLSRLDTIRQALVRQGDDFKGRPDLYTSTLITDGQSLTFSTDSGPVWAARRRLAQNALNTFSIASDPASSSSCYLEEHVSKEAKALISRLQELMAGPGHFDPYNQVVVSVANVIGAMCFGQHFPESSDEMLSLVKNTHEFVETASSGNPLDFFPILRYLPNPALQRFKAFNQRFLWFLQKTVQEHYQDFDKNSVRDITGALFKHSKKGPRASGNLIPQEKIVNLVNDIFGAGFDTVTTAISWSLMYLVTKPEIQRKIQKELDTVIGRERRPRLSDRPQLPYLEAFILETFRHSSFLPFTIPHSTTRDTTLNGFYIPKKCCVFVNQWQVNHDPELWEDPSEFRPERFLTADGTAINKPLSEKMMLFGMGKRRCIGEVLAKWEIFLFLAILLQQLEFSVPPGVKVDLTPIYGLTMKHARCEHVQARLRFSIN

Experiment [7] can be described thus: cells. The experiment is classed as functional.
Experiment [8] has as its target T2, Polyadenylate-binding protein 1 (Homo sapiens, UniProt P11940). Put plainly: PABP1 MLLE–PAM2 binding inhibitor potency, dose response, biochemical, fluorescence polarization, FITC-PAM2 peptide (AID 602259). The format is functional. The settings on record: read-out: IC50_Mean. (In general: In fluorescence polarisation assays a small probe gives low polarisation when free and higher when bound to something large.)

Experiment [9] concerns the target T2, Polyadenylate-binding protein 1. Put plainly: PABP1 MLLE–PAM2 interaction inhibitors, dose response, miRNA deadenylation inhibitor project, biochemical, fluorescence polarization, Cy5-PAM2 peptide, secondary (AID 602260). The experiment is classed as functional. Conditions: read-out: IC50_Mean.
In experiment [10] the target is Cytochrome P450 2C19 (Homo sapiens, UniProt P33261). Kind of experiment: Cytochrome panel assay with activity outcomes. Panel member name: p450-cyp2c19 Compounds with AC50 equal or less than 10 uM are considered active. The format is functional. The settings on record: read-out: AC50.
The target in experiment [11] is Cytochrome P450 2C9 (Homo sapiens, UniProt P11712).
Experiment [12] deals with Cytochrome P450 3A4 (Homo sapiens, UniProt P08684).
Experiment [13] deals with H4. Kind of experiment: Luminescence Cell-Based Dose Response HTS to Identify Activators of 5'UTR Stem-Loop Driven Prion Protein mRNA Translation in H4 Neuroglioblastoma Cells. [Related pubchem assays: 1829 (Project Summary), 1814 (Primary HTS)]. The experiment is classed as functional. Conditions: Homo sapiens.
Experiment [14] can be described thus: Luminescence Cell-Based Dose Response HTS to Identify Activators of Luciferase Translation or Activity in H4 […] Cells. [Related pubchem assays: 1829 (Project Summary), 1814 (Primary HTS)]. The format is functional.
A short description of experiment [15]: Luminescence Cell-Based Dose Confirmation HTS to Identify Activators of 5'UTR Stem-Loop Driven Alpha-Synuclein mRNA Translation in H4 Neuroglioblastoma Cells. [Related pubchem assays: 1829 (Project Summary), 1814 (Primary HTS)]. The format is functional.
The target of experiment [16] is T3, Heat shock factor protein 1 (Mus musculus, UniProt P38532).
T3 sequence (P38532 whole entry): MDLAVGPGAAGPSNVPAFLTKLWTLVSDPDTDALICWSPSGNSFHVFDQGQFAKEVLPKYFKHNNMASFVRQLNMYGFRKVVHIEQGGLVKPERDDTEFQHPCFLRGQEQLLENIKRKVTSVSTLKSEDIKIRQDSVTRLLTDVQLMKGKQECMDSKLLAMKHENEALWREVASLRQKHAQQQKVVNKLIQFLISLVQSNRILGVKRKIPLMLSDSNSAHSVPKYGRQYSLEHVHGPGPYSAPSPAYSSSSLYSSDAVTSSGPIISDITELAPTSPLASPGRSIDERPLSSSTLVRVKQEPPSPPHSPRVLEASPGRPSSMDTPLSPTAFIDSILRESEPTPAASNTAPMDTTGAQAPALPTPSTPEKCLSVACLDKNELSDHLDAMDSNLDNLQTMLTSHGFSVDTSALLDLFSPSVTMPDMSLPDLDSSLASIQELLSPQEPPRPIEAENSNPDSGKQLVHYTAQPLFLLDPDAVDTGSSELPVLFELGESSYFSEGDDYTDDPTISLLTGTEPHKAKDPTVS
Put plainly: inhibition of MG132-induced HSE-luciferase signal, confirmation, cell-based, NIH3T3, luminescence, dose retest (AID 2382).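 Also: NIH3T3 fibroblasts with HSF1-driven luciferase reporter stressed by proteasome inhibitor MG132; luminescence from HSF1-driven luciferase expression after 8 hours of MG132 stress.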 The experiment is classed as functional.

The source made the active and inactive calls.

Cytochrome P450 3A4, sequence (P08684 whole entry): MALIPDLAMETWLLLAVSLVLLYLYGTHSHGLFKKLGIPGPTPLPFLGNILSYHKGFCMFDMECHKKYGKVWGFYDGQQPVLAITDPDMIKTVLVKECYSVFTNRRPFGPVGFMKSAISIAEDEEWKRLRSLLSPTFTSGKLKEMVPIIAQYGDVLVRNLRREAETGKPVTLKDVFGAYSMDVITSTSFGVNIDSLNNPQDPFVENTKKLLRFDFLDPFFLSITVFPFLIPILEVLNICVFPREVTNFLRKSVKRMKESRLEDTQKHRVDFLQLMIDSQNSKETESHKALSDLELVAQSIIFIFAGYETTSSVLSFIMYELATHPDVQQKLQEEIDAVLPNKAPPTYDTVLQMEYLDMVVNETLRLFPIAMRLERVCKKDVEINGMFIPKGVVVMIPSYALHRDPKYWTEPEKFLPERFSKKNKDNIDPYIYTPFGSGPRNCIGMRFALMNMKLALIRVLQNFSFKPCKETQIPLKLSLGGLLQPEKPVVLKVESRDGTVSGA
T2 sequence (P11940 whole entry): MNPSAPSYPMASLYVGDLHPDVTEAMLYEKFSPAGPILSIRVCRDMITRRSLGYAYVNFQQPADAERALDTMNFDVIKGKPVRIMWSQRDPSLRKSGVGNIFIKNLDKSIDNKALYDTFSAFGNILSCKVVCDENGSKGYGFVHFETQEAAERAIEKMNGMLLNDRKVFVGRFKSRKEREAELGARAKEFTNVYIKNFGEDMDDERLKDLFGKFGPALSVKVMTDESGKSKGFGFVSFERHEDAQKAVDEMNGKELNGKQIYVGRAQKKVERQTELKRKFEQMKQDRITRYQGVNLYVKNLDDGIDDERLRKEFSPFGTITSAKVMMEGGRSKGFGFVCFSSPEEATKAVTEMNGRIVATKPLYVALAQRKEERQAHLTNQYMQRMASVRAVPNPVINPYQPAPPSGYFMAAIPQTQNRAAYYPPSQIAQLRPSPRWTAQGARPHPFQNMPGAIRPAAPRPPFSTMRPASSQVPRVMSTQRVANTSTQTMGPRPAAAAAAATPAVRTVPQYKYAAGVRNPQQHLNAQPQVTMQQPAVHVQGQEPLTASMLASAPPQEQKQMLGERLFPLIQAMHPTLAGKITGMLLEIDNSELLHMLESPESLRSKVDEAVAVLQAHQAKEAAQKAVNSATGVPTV
Cytochrome P450 2C9, sequence (P11712 whole entry): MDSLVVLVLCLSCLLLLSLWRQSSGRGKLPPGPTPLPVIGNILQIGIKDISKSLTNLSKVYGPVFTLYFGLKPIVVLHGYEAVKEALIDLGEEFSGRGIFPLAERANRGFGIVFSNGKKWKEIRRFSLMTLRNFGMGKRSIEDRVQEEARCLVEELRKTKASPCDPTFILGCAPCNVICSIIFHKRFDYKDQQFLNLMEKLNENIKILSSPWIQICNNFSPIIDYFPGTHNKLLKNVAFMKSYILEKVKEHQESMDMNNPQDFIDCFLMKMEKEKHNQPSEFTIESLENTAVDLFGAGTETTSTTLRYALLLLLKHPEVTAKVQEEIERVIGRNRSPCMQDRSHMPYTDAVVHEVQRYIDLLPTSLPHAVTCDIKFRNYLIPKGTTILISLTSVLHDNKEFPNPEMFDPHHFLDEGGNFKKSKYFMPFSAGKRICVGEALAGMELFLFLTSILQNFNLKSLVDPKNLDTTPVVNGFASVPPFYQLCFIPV
Cytochrome P450 2D6, sequence (P10635 whole entry): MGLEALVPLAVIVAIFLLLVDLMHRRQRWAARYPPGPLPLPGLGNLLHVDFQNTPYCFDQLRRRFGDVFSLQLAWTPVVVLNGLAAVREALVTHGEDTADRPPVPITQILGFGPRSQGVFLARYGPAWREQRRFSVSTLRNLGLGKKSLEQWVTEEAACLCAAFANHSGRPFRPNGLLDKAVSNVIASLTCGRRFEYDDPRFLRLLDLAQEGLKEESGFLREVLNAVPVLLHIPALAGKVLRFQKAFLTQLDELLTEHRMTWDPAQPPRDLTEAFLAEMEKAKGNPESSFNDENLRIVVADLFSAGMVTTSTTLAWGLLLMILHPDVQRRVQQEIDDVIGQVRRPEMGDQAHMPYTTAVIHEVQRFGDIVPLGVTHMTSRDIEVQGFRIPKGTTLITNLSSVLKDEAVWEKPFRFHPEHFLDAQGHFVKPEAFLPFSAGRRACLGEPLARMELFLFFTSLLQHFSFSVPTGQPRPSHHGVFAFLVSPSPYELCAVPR
Cytochrome P450 2C19, sequence (P33261 whole entry): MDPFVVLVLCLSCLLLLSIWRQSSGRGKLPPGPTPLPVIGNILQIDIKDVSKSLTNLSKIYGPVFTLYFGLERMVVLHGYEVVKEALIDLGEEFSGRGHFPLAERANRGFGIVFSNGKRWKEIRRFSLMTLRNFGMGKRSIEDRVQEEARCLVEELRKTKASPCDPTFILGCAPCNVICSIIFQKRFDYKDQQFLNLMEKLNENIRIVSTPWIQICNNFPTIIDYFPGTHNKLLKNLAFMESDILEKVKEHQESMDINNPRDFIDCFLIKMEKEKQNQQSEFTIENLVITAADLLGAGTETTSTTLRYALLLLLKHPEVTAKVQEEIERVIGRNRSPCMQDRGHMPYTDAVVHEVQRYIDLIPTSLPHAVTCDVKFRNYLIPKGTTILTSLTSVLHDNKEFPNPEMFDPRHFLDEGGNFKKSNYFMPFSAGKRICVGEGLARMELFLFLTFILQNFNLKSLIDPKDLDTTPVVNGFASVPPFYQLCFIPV

Regarding `CCN(CC)C(=O)[C@H]1C[C@H](CC(=O)NC/C=C(\C)CCC=C(C)C)C(=O)N2CCc3c([nH]c4cc(CCC(=O)N(C)C)ccc34)[C@]12C`, in experiment [1], the half-maximal activity concentration (AC50) (usually the concentration giving half of the maximal activity seen) was 1.37 µM (active).

Consider `Cc1ccc(C2=[N+]([O-])C3(CCCCC3=O)N(O)C2(C)C)cc1` (stereo not drawn), for which the results for the half-maximal effective concentration (EC50) in experiment [2], in experiment [3] and in [4] were 42.6 µM (active), > 120 µM (not active) and > 120 µM (not active), respectively.

For `CCOC(=O)c1cc(-c2ccccc2)nc2nc(N3CCCCC3)sc12`, the EC50 – broadly, the midpoint of the concentration-response curve – in experiment [2] was 103 µM (active); in [3], 24.3 µM (active); in experiment [4] it was 14.8 µM (active).

Take `O=C(NCCNc1ccc([N+](=O)[O-])cc1Cl)c1ccccc1F`: the EC50 in experiment [2] was 76.3 µM (active); in experiment [3], 26.4 µM (active); in experiment [4] it was > 120 µM (not active).

In the case of `Cc1cc([C@](C)(N)C(=O)O)ccc1P(=O)(O)O`, the AC50 is 12.6 µM (inconclusive) in experiment [5] and 31.6 µM (inconclusive) in experiment [6].

Turning to `CCCOC(=O)c1ccc(NC(=O)c2ccccc2OC)cc1`, the IC50 in [7] was 11.3 µM (active).

Turning to `O=C(CSC1=NC2(CCCCC2)N=C1c1ccccc1)Nc1ccc2c(c1)OCCO2`, the IC50 in experiment [8] and in experiment [9] was > 66 µM (inactive) each time.

Regarding `O=C(O)CNC(=O)c1ccccc1O` [SALICYLURIC ACID], the concentration at half-maximal activity (AC50) in experiment [6] is 5.01 µM (inconclusive).

With `CCOC(=O)c1cc(COc2cc(Cl)cc(Cl)c2)on1`, in experiment [7], the IC50 is 1.97 µM (active).

For the compound `COc1ccc(N/N=C2/CCCCC2=O)cc1`, the IC50 in [8] and in experiment [9] was > 66 µM (inactive) each time.

For `CCOC(=O)c1c(NC(=O)C2(C)Cc3ccccc3C(=O)O2)sc2c1CCCC2` (stereo not drawn), the IC50 in experiment [8] and in [9] was > 66 µM (inactive) each time.

As for `Cc1noc(C)c1-c1cncnc1NCCN1CCOCC1`, the AC50 is 31.6 µM (inconclusive) in [6] and 0.0398 µM (inconclusive) in experiment [10].

Take `CCCn1c(=O)c(C(=O)N/N=C/c2ccccc2F)c(O)c2ccccc21`: the IC50 in [7] is 48.2 µM (active).

`Cc1nc2ccccn2c1C(=O)C1=C(O)C(=O)N(CCN(C)C)C1c1ccco1` (stereo not drawn): the IC50 in [8] and in [9] was > 66 µM (inactive) throughout.

Take `CC(C)(C)C1CCc2onc(C(=O)Nc3cnn(Cc4ccc(F)cc4)c3)c2C1` (stereo not drawn): the EC50 in experiment [2] is > 120 µM (not active); in experiment [3] it was 23.3 µM (active); in experiment [4] it was 28.2 µM (active).

In the case of `COc1ccccc1/C=N/N=C(/Nc1ccc(C)cc1)c1nc2ccccc2s1`, the results for the concentration at half-maximal activity (AC50) in [11], in experiment [12] and in experiment [6] were 17.8 µM (inconclusive), 17.8 µM (inconclusive) and 14.1 µM (inconclusive), respectively.

On to `Cc1ccc(CSc2nnc(SCC(=O)N/N=C/c3c(C)nn(-c4ccccc4)c3C)s2)cc1`, for which the values for the concentration giving a half-maximal response (EC50) in [13], in experiment [14] and in experiment [15] were 43.9 µM (active), > 120 µM (not active) and 0.169 µM (active), respectively.

Take `O=C1c2c(O)cc(O)cc2O[C@@H](c2ccc(O)c(O)c2)[C@H]1O` [(+)-EPITAXIFOLIN]: the concentration at half-maximal activity (AC50) in experiment [6] was 15.8 µM (inconclusive).

For `COCCCNC(=O)c1ccc(Cn2c(=O)c3ccccc3n(Cc3ccccc3C#N)c2=O)cc1`, the EC50 in [2] was > 120 µM (not active); in experiment [3], > 120 µM (not active); in experiment [4], 20.7 µM (active).

In the case of `CCCC(=O)Nc1cccc(-c2nc3ccccc3c(=O)o2)c1`, in [7], the IC50 was 10.4 µM (active).

`Cc1onc(-c2c(F)cccc2Cl)c1C(=O)NC(=S)Nc1c(C)n(C)n(-c2ccccc2)c1=O`: the IC50 in experiment [8] and in experiment [9] was > 66 µM (inactive) throughout.

Turning to `CC1CC(C)CN(C(=O)CNS(=O)(=O)c2ccc(Br)s2)C1` (stereo not drawn), the values for the AC50 in [11], in experiment [12] and in [6] were 10 µM (inconclusive), 11.2 µM (inconclusive) and 15.8 µM (inconclusive), respectively.

For `Cc1nn(C(C)(C)C)c(OC(=O)c2ccco2)c1Sc1ccccc1`, the half-maximal activity concentration (AC50) in experiment [12] was 39.8 µM (inconclusive); in experiment [6], 14.1 µM (inconclusive).

For `Cc1cc(Cn2cnc3c2C[C@@H](C(=O)O)N(C(=O)C(c2ccccc2)c2ccccc2)C3)ccc1N(C)C`, the values for the AC50 in experiment [5] and in [6] were 39.8 µM (inconclusive) and 25.1 µM (inconclusive), respectively.

Consider `CCOC(=O)c1cnn(-c2ccc(C(C)C)cc2)c1NC(=O)C1CCC1`, for which the AC50 in experiment [11] is 39.8 µM (inconclusive); in [12] it was 39.8 µM (inconclusive); in [5], 8.91 µM (inconclusive); in experiment [6], 14.1 µM (inconclusive). For the same compound, the results for the EC50 in experiment [13], in experiment [14] and in experiment [15] were > 120 µM (not active), 18.9 µM (active) and 13.4 µM (active), respectively.

For the compound `CCN1C(=O)/C(=C\NC2CCCC(C)C2C)SC1=S` (stereo not drawn), the concentration giving a half-maximal response (EC50) in experiment [13] is > 120 µM (not active); in experiment [14] it was 15.8 µM (active); in experiment [15], 0.564 µM (active).

As to `Cc1n[nH]c(SCC(=O)N2CCCCC2)c1[N+](=O)[O-]`, the results for the EC50 in experiment [13], in experiment [14] and in experiment [15] were 17.3 µM (active), 8.02 µM (active) and 14.7 µM (active), respectively.

With `COc1ccccc1/C=C/C=N/NC(=O)c1ccncc1`, the IC50 in experiment [7] was 0.44 µM (active).

In the case of `S=C(c1ccc(N2CCOCC2)cc1)N1CCOCC1`, the IC50 in experiment [8] and in experiment [9] was > 66 µM (inactive) each time. Besides, in experiment [16], the EC50 was > 195 µM (not active).

As to `O=C1/C(=C/c2cccnc2)Oc2cc(OS(=O)(=O)c3ccccc3)ccc21`, the figures for the EC50 in [13], in experiment [14] and in experiment [15] were > 120 µM (not active), 8.55 µM (active) and 18.3 µM (active), respectively.

In the case of `O=c1c(-c2ccccc2)nc2cnc(N3CCOCC3)nc2n1CCc1ccccc1`, the half-maximal activity concentration (AC50) in experiment [12] was 31.6 µM (inconclusive); in [6], 12.6 µM (inconclusive).

`Cc1ccc(C(=O)Nc2cccc(C(F)(F)F)c2)cc1NC(=O)c1cnnc2ccccc12`: the results for the EC50 in experiment [2], in [3] and in experiment [4] were > 120 µM (not active), 18.9 µM (active) and 13.2 µM (active), respectively.

In the case of `Cc1ccc(NC(=O)C2C3CCCC2C3c2ccccc2)c(C)c1` (stereo not drawn), the EC50 in experiment [2], in experiment [3] and in [4] was > 120 µM (not active) throughout.

As for `O=c1oc2ccccc2cc1NCc1ccccc1O`, the concentration for a half-maximal effect (EC50) in [13] is 46.2 µM (active); in [14], 5.63 µM (active); in experiment [15], 0.325 µM (active).

As for `O=C(Cc1ccc(Cl)cc1)OCC(=O)c1ccc[nH]1`, the IC50 in [7] is 18.8 µM (active).

As for `O=C(c1cnccn1)N1CCC[C@@]2(CCN(C(c3ccccc3)c3ccccc3)C2)C1`, the values for the AC50 in [12] and in experiment [6] were 2.51 µM (inconclusive) and 15.8 µM (inconclusive), respectively.

The values above are taken from ChEMBL document CHEMBL1201862, “PubChem BioAssay data set” (2004).
